Assay results taken from article PMC10604610, “An Induced Pluripotent Stem Cell-Derived Human Blood–Brain Barrier (BBB) Model to Test the Crossing by Adeno-Associated Virus (AAV) Vectors and Antisense Oligonucleotides” (Biomedicines, 2023).

Columns and labels:
hCMEC/D3 cells = conditions: hCMEC/D3 on collagen I-coated Transwell polyester insert 0.4 μm pore, 900,000 cells/cm^2, 48 h; apical to basal; tracer 0.1 mg/mL in Ringer HEPES buffer pH 7.4; 37 °C, 60 min; fluorescence; mean of triplicate filters
iPSC-derived BMECs = conditions: three iPSC-derived BMEC models (4603, 19-9-7T, AD3-CL1); Transwell polyester insert 0.4 μm pore, 900,000 cells/cm^2, 48 h culture; apical to basal; tracer 0.1 mg/mL in Ringer HEPES buffer pH 7.4; 37 °C, 60 min; fluorescence plate reader; mean of triplicate filters
[1] = system: undifferentiated iPSCs (4603); conditions: undifferentiated iPSCs (4603) on collagen IV/fibronectin-coated Transwell insert, 900,000 cells/cm^2, 48 h; apical to basal; tracer 0.1 mg/mL in Ringer HEPES buffer pH 7.4; 37 °C, 60 min; fluorescence; mean of triplicate filters

Compound | % Permeability (percentage of tracer present in the basal chamber) (hCMEC/D3 cells) | % Permeability (percentage of tracer present in the basal chamber) (iPSC-derived BMECs) | % Permeability (percentage of tracer present in the basal chamber) [1]
O=C([O-])c1ccccc1-c1c2ccc(=O)cc-2oc2cc([O-])ccc12.[Na+].[Na+] [Na-F, sodium fluorescein] | significantly higher than in iPSC-derived BMECs but significantly lower than that of control iPSCs | about 5% | 
lucifer yellow [LY] | around 16% | Less than 2% | around 16%
